Earlier results on one molecule are cited in patent publication US9192579B2, “Sustained release drug delivery devices, methods of use, and methods of manufacturing thereof” (pSivida US, Inc., priority 2000, dated 2015).

This series has as its system CMV retinitis. The note with it: intravitreal injections of 200 to 400 μg once or twice weekly, AIDS patients.

The structures appear in SMILES notation.

Turning to `Nc1nc(O)c2ncn(COC(CO)CO)c2n1` [GCV, ganciclovir], the “effect on CMV retinitis” value is “temporary remission”.
